We go through 60 compounds from US20240132513A1, “BENZAZEPINE DERIVATIVES, COMPOSITIONS, AND METHODS FOR TREATING COGNITIVE IMPAIRMENT” (AGENEBIO, INC., priority 2022, published 2024).

The experiment deals with α5β3γ2 GABAA R (Homo sapiens, UniProt P18507+P31644). Briefly: Binding activity on GABAA R: inhibition of [3H]Ro15-1788 binding, α5 containing receptor. As for the experimental part: Tissue culture and Membrane Preparation: The binding was performed on Ltk cells stably expressing GABAA R: […], α2β3γ2, α3β3γ2 and α5β3γ2 (provided by Merck Co., NJ, USA). Cells were seeded in 100 mm culture plates in DMEM/F12 medium containing 10% serum and antibiotics in 5% CO2 and allowed to grow for 1-2 days. GABAAR expression was then induced by dexamethasone as follows: 0.5 μM for 1 day for α5 containing and 2 μM for 3 days for α1, α2 and α3 containing GABAARs. After induction, cells were collected by scraping into Dulbecco's Phosphate buffered saline (DPBS, pH 7.4, Invitrogen, Carlsbad, CA, USA) and centrifuged at 150×g for 10 min. The pellet was washed twice by re-suspension and centrifugation. The cell pellets from at least 5 different preps were combined, suspended in the binding assay buffer (50 mM KH2PO4; 1 mM EDTA; 0.2 M KCl, pH 7.4) and membranes prepared by sonication (3-5 times, 30 sec) using Branson Sonifier 150 (G. Heinmann, Germany). Protein content was determined using BCA assay (Bio-Rad Labs, Reinach, Switzerland) with Bovine Serum Albumin (Sigma Aldrich, St. Louis, MO, USA) as the standard. Aliquots were prepared and stored at −20° C. for further use in binding assays.
α5β3γ2 GABAA R, sequence (P31644 32-462): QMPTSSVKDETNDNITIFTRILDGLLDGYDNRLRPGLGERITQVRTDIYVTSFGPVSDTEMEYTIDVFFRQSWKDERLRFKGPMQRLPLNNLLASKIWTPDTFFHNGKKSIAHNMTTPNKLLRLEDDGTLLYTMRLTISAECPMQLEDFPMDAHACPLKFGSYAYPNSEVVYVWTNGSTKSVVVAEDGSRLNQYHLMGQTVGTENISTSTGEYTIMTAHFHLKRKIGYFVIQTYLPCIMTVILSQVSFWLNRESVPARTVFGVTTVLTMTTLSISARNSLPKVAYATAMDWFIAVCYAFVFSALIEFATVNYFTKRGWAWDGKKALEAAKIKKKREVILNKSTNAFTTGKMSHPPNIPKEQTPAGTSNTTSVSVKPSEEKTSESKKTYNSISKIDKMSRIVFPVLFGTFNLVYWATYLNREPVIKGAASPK
α5β3γ2 GABAA R, sequence (P28472 26-473 partner): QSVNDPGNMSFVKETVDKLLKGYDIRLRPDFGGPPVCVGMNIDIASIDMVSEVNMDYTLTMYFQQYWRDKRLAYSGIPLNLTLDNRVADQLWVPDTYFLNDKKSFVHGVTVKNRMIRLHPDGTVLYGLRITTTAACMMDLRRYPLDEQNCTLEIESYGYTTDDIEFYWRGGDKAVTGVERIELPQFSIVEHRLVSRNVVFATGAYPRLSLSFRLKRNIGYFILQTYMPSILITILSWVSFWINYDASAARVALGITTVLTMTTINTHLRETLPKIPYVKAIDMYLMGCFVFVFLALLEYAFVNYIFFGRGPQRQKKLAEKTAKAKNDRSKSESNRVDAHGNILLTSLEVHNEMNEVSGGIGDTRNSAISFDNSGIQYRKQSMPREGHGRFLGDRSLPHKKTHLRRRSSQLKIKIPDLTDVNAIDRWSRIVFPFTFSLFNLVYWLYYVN
α5β3γ2 GABAA R, sequence (P18507 40-475): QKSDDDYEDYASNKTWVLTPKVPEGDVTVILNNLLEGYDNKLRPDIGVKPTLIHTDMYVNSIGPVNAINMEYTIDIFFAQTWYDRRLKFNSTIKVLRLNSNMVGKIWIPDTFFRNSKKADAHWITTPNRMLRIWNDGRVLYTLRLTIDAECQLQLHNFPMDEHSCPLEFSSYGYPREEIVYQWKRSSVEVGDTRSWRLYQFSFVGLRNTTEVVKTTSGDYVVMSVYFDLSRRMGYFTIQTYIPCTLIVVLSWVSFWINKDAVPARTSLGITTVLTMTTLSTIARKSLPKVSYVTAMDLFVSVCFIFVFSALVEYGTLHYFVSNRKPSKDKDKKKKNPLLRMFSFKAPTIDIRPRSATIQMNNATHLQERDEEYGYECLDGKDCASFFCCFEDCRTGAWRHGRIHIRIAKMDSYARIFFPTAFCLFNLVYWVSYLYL
Ligand Binding: Saturation binding curves were obtained by incubating membranes with increasing concentrations (0.01-8 nM) of [^3H]Rol5-1788 (Flumazepil, 75-85 Ci/mmol, PerkinElmer, MA, USA), with nonspecific binding measured in the presence of 10 μM diazepam.
All binding assays were performed for 1 h at 4° C. in assay buffer. The total assay volume was 0.5 ml containing 0.2 mg/ml protein for α5 and 0.4 mg/ml for α1, α2, and α3 containing GABAAR membranes. Incubations were terminated by filtration through GF/B filters using a 24-Cell Harvestor (Brandel, Gaithersburg, MD, USA) followed by 3 washes with ice-cold assay buffer. Filters were transferred to scintillation vials, 5 ml scintillation liquid added, vortex-mixed and kept in dark. Next day, radioactivity was obtained using a scintillation counter (Beckman Coulter, Brea, CA, USA). All assays were performed in triplicate.
Data Analyses: Saturation and inhibition curves were obtained using GraphPad Prism software (GraphPad Software, Inc., CA, USA).

[1] abbreviates: ranges of the column heads, [3H]Ro15-1788, Ltk cell membranes.

Where two headings read alike, the source gives them in different places.

`Cn1ncc2c1-c1cc(Cl)ccc1-n1cnc(C#CC(C)(C)C)c1C2` [Compound 102]: the Ki – broadly, a measure of affinity in units of concentration, obtained from inhibition or displacement – is < 100 nM.

Turning to `Clc1ccc2c(c1)-c1[nH]ncc1Cc1c(-c3nc(C4CCC4)no3)ncn1-2` [Compound 107], the inhibitory constant (Ki) was < 100 nM.

For the compound `COc1ccc2c(c1)-c1c(cnn1CC1CC1)Cc1c(-c3nc(C(F)(F)F)no3)ncn1-2` [Compound 117], the Ki was < 100 nM.

Consider `CCn1cc2c(n1)-c1cc(OC)ccc1-n1cnc(-c3nc(C4CC4)no3)c1C2` [Compound 152], for which the Ki was < 100 nM.

Regarding `Cn1ncc2c1-c1cc(Cl)ccc1-n1cnc(-c3cnn(Cc4ccccc4)c3)c1C2` [Compound 164], the Ki was < 100 nM.

Compound `CC(C)n1cc2c(n1)-c1cc(Cl)ccc1-n1cnc(-c3cnn(Cc4ccccc4)c3)c1C2` [Compound 165] came in with an inhibition constant Ki of 100 to 1000 nM.

`Cn1cc2c(n1)-c1cc(Cl)ccc1-n1cnc(-c3ncco3)c1C2` [Compound 166]: the Ki is < 100 nM.

Turning to `CCn1cc2c(n1)-c1cc(Cl)ccc1-n1cnc(C3=N[C@@H](C(C)C)CO3)c1C2` [Compound 180], the Ki was < 100 nM.

On to `Cn1cc2c(n1)-c1cc(Cl)ccc1-n1cnc(C3=NC4(COC4)CO3)c1C2` [Compound 182], for which the Ki is < 100 nM.

Compound `COc1ccc2c(c1)-c1c(cnn1C)Cc1c(-c3noc(C(C)(C)OC)n3)ncn1-2` [Compound 186] gave a Ki of 100 to 1000 nM.

As for `COc1ccc2c(c1)-c1n[nH]cc1Cc1c(-c3noc(C4(F)CC4)n3)ncn1-2` [Compound 191], the Ki is < 100 nM.

`CCn1cc2c(n1)-c1cc(Cl)ccc1-n1cnc(-c3noc(C(C)(C)OC)n3)c1C2` [Compound 196]: the inhibition constant (Ki) is < 100 nM.

Regarding `CC(C)c1noc(-c2ncn3c2Cc2cn(C4CCOC4)nc2-c2cc(Cl)ccc2-3)n1` (stereo not drawn) [Compound 199], the inhibition constant (Ki) is < 100 nM.

For the compound `COc1ccc2c(c1)-c1c(cnn1C)Cc1c(-c3noc(C4(OC)CC4)n3)ncn1-2` [Compound 204], the inhibitory constant (Ki) is < 100 nM.

`Cn1cc2c(n1)-c1cc(Cl)ccc1-n1cnc(-c3cnn(C4CCCO4)c3)c1C2` (stereo not drawn) [Compound 221] gave a Ki of 100 to 1000 nM.

With `FC(F)(F)c1noc(-c2ncn3c2Cc2cn(CC4CCCO4)nc2-c2cc(Cl)ccc2-3)n1` (stereo not drawn) [Compound 227], the Ki was < 100 nM.

Turning to `Clc1ccc2c(c1)-c1nn(CC3CCOC3)cc1Cc1c(-c3cnn(Cc4ccccc4)c3)ncn1-2` (stereo not drawn) [Compound 229], under setting [1], the Ki is < 100 nM.

Take `CCn1cc2c(n1)-c1cc(OC)ccc1-n1cnc(-c3nc(C(C)(C)OC)no3)c1C2` [Compound 234]: the Ki was < 100 nM.

`COCc1noc(-c2ncn3c2Cc2cn(C)nc2-c2cc(Cl)ccc2-3)n1` [Compound 235]: the Ki is < 100 nM.

Regarding `Cc1ccc(-c2noc(C)c2COc2ccc(C(=O)NC3CCOCC3)nn2)cn1` [Compound 238], under setting [1], the Ki was < 100 nM.

With `CN(C)Cc1noc(-c2ncn3c2Cc2cn(C)nc2-c2cc(Cl)ccc2-3)n1` [Compound 240], the inhibition constant Ki was < 100 nM.

On to `CCn1cc2c(n1)-c1cc(OC)ccc1-n1cnc(-c3nc(CN(C)C)no3)c1C2` [Compound 241], for which the inhibitory constant (Ki) was < 100 nM.

On to `COc1ccc2c(c1)-c1c(cnn1CC1CCOC1)Cc1c(-c3nc(C(C)C)no3)ncn1-2` (stereo not drawn) [Compound 246], for which, under setting [1], the Ki was < 100 nM.

For `COc1ccc2c(c1)-c1nn(C)cc1Cc1c(-c3nc(C4CCOC4)co3)ncn1-2` (stereo not drawn) [Compound 262], under setting [1], the Ki was > 1000 nM.

On to `COc1ccc2c(c1)-c1nn(CC3CCOC3)cc1Cc1c(-c3nc(C(F)(F)F)no3)ncn1-2` (stereo not drawn) [Compound 265], for which the Ki is < 100 nM.

For the compound `COc1ccc2c(c1)-c1nn(C)cc1Cc1c(-c3nc(CN4CCCC4)co3)ncn1-2` [Compound 270], the inhibition constant Ki fell in the range of 100 to 1000 nM.

For `COc1ccc2c(c1)-c1nn(C)cc1Cc1c(-c3nc(CN4CCOCC4)co3)ncn1-2` [Compound 271], the inhibitory constant (Ki) is < 100 nM.

In the case of `COCCOCc1coc(-c2ncn3c2Cc2cn(C)nc2-c2cc(OC)ccc2-3)n1` [Compound 272], the inhibition constant (Ki) is < 100 nM.

As for `COc1ccc2c(c1)-c1nn(C)cc1Cc1c(-c3nc(COC4CCOC4)co3)ncn1-2` (stereo not drawn) [Compound 273], the Ki was < 100 nM.

As for `Clc1ccc2c(c1)-c1nn(C3CCOC3)cc1Cc1c(-c3cnn(Cc4ccccc4)c3)ncn1-2` (stereo not drawn) [Compound 274], the inhibition constant Ki under setting [1] is < 100 nM.

Take `COCCOCc1coc(-c2ncn3c2Cc2cn(C)nc2-c2cc(Cl)ccc2-3)n1` [Compound 278]: the Ki is < 100 nM.

As for `COc1ccc2c(c1)-c1nn(C)cc1Cc1c(-c3nnc(C4CCOC4)o3)ncn1-2` (stereo not drawn) [Compound 291], the inhibition constant Ki lay within 100 to 1000 nM.

Consider `COCc1noc(-c2ncn3c2Cc2cn(CC4COC4)nc2-c2cc(OC)ccc2-3)n1` [Compound 298], for which the inhibition constant Ki under setting [1] is < 100 nM.

For `COCc1noc(-c2ncn3c2Cc2cn(CC4CCOC4)nc2-c2cc(OC)ccc2-3)n1` (stereo not drawn) [Compound 299], the inhibition constant (Ki) under setting [1] is < 100 nM.

Regarding `CC(C)OCc1nc(-c2ncn3c2Cc2cn(CC4CCCO4)nc2-c2cc(Cl)ccc2-3)no1` (stereo not drawn) [Compound 307], the Ki is < 100 nM.

`COCCn1cc2c(n1)-c1cc(OC)ccc1-n1cnc(-c3noc(C(C)(C)OC)n3)c1C2` [Compound 311]: the Ki is < 100 nM.

Take `COc1ccc2c(c1)-c1nn(C)cc1Cc1c(-c3nc(COC4CCOC4)no3)ncn1-2` (stereo not drawn) [Compound 316]: under setting [1], the Ki was < 100 nM.

Consider `COc1ccc2c(c1)-c1nn(C)cc1Cc1c(-c3noc(C4(C)COC4)n3)ncn1-2` [Compound 317], for which the inhibition constant (Ki) is < 100 nM.

For `COCCn1cc2c(n1)-c1cc(OC)ccc1-n1cnc(-c3noc(C4CCOCC4)n3)c1C2` [Compound 318], the Ki is < 100 nM.

`Clc1ccc2c(c1)-c1nn(CC3CCCO3)cc1Cc1c(-c3cnn(CC4CCOCC4)c3)ncn1-2` (stereo not drawn) [Compound 319]: the Ki was < 100 nM.

On to `Clc1ccc2c(c1)-c1nn(CC3CCCO3)cc1Cc1c(-c3cnn(Cc4ccccn4)c3)ncn1-2` (stereo not drawn) [Compound 320], for which the Ki was < 100 nM.

Regarding `Clc1ccc2c(c1)-c1nn(C3CCOC3)cc1Cc1c(-c3cnn(CC4CCOCC4)c3)ncn1-2` (stereo not drawn) [Compound 321], the Ki was < 100 nM.

For the compound `COC1(c2nc(-c3ncn4c3Cc3cn(CC5CCCO5)nc3-c3cc(Cl)ccc3-4)no2)CC1` (stereo not drawn) [Compound 322], the Ki was < 100 nM.

`COc1ccc2c(c1)-c1nn(CC3CCCO3)cc1Cc1c(-c3noc(C4(OC)CC4)n3)ncn1-2` (stereo not drawn) [Compound 323]: the Ki was < 100 nM.

In the case of `COc1ccc2c(c1)-c1nn(C)cc1Cc1c(-c3noc(C4CCOCC4)n3)ncn1-2` [Compound 324], the Ki under setting [1] is < 100 nM.

Consider `COc1ccc2c(c1)-c1nn(C)cc1Cc1c(-c3nnc(C4COCCO4)o3)ncn1-2` (stereo not drawn) [Compound 325], for which the inhibition constant Ki was < 100 nM.

`COCc1nnc(-c2ncn3c2Cc2cn(C)nc2-c2cc(OC)ccc2-3)o1` [Compound 326]: the Ki is < 100 nM.

Regarding `COc1ccc2c(c1)-c1nn(CCOC(F)(F)F)cc1Cc1c(-c3noc(C4CCOCC4)n3)ncn1-2` [Compound 327], the Ki is < 100 nM.

Take `COc1ccc2c(c1)-c1nn(C)cc1Cc1c(-c3nc(CN4CCOCC4)no3)ncn1-2` [Compound 328]: the Ki is < 100 nM.

Under setting [1], `COc1ccc2c(c1)-c1c(cnn1C)Cc1c(-c3nc(CN4CCOCC4)no3)ncn1-2` [Compound 329] registered an inhibition constant (Ki) of 100 to 1000 nM.

On to `COc1ccc2c(c1)-c1nn(CCOC(F)(F)F)cc1Cc1c(-c3noc(C4(OC)CC4)n3)ncn1-2` [Compound 330], for which the Ki is < 100 nM.

Take `COc1ccc2c(c1)-c1nn(CC3COC3)cc1Cc1c(-c3noc(C4(OC)CC4)n3)ncn1-2` [Compound 331]: the Ki is < 100 nM.

For the compound `COCC(COC)OCc1coc(-c2ncn3c2Cc2cn(C)nc2-c2cc(Cl)ccc2-3)n1` [Compound 332], the Ki was < 100 nM.

As to `COc1ccc2c(c1)-c1nn(CCOC(C)(C)C)cc1Cc1c(-c3noc(C(C)(C)OC)n3)ncn1-2` [Compound 333], the Ki was < 100 nM.

Regarding `COc1ccc2c(c1)-c1nn(C)cc1Cc1c(-c3nnc(COCC(F)(F)F)o3)ncn1-2` [Compound 334], the Ki was < 100 nM.

Regarding `COc1ccc2c(c1)-c1nn(C)cc1Cc1c(-c3nc(C(C)(C)OC)no3)ncn1-2` [Compound 335], the Ki was < 100 nM.

On to `COc1cccc(Cn2cc(-c3ncn4c3Cc3cn(C)nc3-c3cc(Cl)ccc3-4)cn2)n1` [Compound 336], for which the inhibitory constant (Ki) was < 100 nM.

In the case of `COc1cccc(Cn2cc(-c3ncn4c3Cc3cn(CC5CCCO5)nc3-c3cc(Cl)ccc3-4)cn2)n1` (stereo not drawn) [Compound 337], the Ki was < 100 nM.

Turning to `COc1cccc(Cn2cc(-c3ncn4c3Cc3cn(C5CCOC5)nc3-c3cc(Cl)ccc3-4)cn2)n1` (stereo not drawn) [Compound 338], the Ki is < 100 nM.

`COCCn1cc2c(n1)-c1cc(OC)ccc1-n1cnc(-c3noc(C4(OC)CC4)n3)c1C2` [Compound 339]: the Ki is < 100 nM.
